Source: patent US20240269304A1, “BCL-XL INHIBITOR ANTIBODY-DRUG CONJUGATES AND METHODS OF USE THEREOF” (Novartis AG, priority 2020, published 2024)
Where two headings read alike, the source gives them in different places.

Key:
[1] = test system: H1650 human non-small cell lung carcinoma (NSCLC) model; assay: In vivo efficacy of EGFR1-Bcl-xL inhibitor ADCs with different linker payloads in combination with docetaxel, H1650 xenografts (Example 16); parameters: species or system female SCID mice; conditions: 7.5 mg/kg i.v. once + docetaxel 7.5 mg/kg iv 24 h later; for ΔTumor volume (mm^3) D21: mean±SEM; for Statistics 21 vs EGFR-L109A-P1 / Statistics D21 vs Vehicle gp / Statistics D46 vs EGFR-L109A-P1: one way ANOVA post hoc Tukey
Protocol: Tumor growth was monitored regularly post cell inoculation and animals were randomized into treatment groups (n=7) with a mean tumor volume of about 150 mm^3. […] The ADCs were administered intravenously (i.v.) once at the start of treatment at 7.5 mg/kg in combination with 7.5 mg/kg docetaxel (Zentiva: 1 ml/20 mg), which was administered i.v. once 24 h after the ADCs. Doses were adjusted to individual mouse body weights.
As a measure of efficacy, the %T/C value was calculated on day 21 according to:
(Δtumor volume treated/Δtumor volume control)*100 Tumor regression was calculated according to: […]
Where Δtumor volumes represent the mean tumor volume on the evaluation day minus the mean tumor volume at the start of the experiment.

[2] = ADC stability study: % aggregates by SEC after incubation at 37° C. for 168 h; format: physicochemical
Protocol: Size Exclusion Chromatography: Size exclusion chromatography (SEC) was performed for quality control of each ADCs by measuring monomer percentage of the conjugate. The analysis was performed on analytical column Superdex 200 Increase 5/150 GL (GE Healthcare, 28990945) in isocratic conditions 100% PBS pH7.4 (Sigma Life Science, P3813, 10PAK), flow 0.45 mI/min for 12 minutes. The % aggregate fraction of the conjugate sample was quantified based on the peak area absorbance at 280 nm. Its calculation was based on the ratio between the high molecular weight eluent at 280 nm divided by the sum of peak area absorbance at the same wavelength of the high molecular weight and monomeric eluents multiplied by 100.
Characterization of the exemplary ADCs is summarized in Table 13 (coupling, LC-MS method, OAR, aggregation status, ADO stability and yield). The average OAR values were determined using the above LC-MS methods and the percentage of aggregates was measured by size exclusion chromatography (SEC) during the quality control of the ADO and after the stability study (incubation at 37° C. for 168 h).

HCC1569 cells = assay: CellTiterGlo (CTG) cell viability, 120 h, HCC1569, single agent or with 10 nM Paclitaxel; format: cell-based
Protocol: HCC1569 cells were cultivated in RPMI supplemented with 10% heat inactivated fetal bovine serum, penicillin (100 IU/ml), streptomycin (100 μg/ml) and L-glutamine (2 mM). Cell lines were cultured at 37° C. in a humidified atmosphere containing 5% 002. […] Effects of ADCs on cell viability were assessed after 5 days of incubation at 37° C./5% CO2 by quantification of cellular ATP levels using CellTiterGlo at 75 μL reagent/well. All the conditions were tested in triplicates. Luminescence was quantified on a multipurpose plate reader. IC50s were calculated using standard four-parametric curve fitting.

H1650 cells = assay: CellTiterGlo (CTG) cell viability, 3D, 120 h, H1650 (Example 8); format: cell-based, human; conditions: Homo sapiens, NCI-H1650, H1650 3D
HPB-ALL (T-ALL) = assay: CellTiter-Glo viability 72 h, single agent or 1/1 combination with vincristine, ABT-199 or Compound A2, HPB-ALL (Example 9); format: cell-based; conditions: Homo sapiens, HPBALL, single agent or 1/1 combination as labelled
Protocol: (§1) Cell lines were cultured in the media described above at 37° C. in a humidified atmosphere containing 5% CO2. Cells were seeded in 96 well clear bottom plates (96 well clear-bottom, white, Corning reference 3903) and exposed to the payloads or ADCs at single agents or in 1/1 combinations with vincristine, ABT-199 or compound A2 for 72 h (serially diluted; 9 concentrations each, triplicates). Effects of payloads or ADCs on cell viability were assessed after 3 days of incubation at 37° C./5% CO2 by quantification of cellular ATP levels using CellTiter-Glo reagent (Promega Ref: G7571) at 75 μL reagent/well. All the conditions were tested in triplicates. Luminescence was quantified on a multipurpose plate reader. IC50s were calculated using standard four-parametric curve fitting. […] Each experiment was performed at least twice, with results being reproducible.

ALL-SILL (T-ALL) = assay: CellTiter-Glo viability 72 h, single agent or 1/1 combination, ALL-SIL (Example 9); format: cell-based; conditions: single agent or 1/1 combination as labelled
Protocol: Cell lines were cultured in the media described above at 37° C. in a humidified atmosphere containing 5% CO2. […] Effects of payloads or ADCs on cell viability were assessed after 3 days of incubation at 37° C./5% CO2 by quantification of cellular ATP levels using CellTiter-Glo reagent (Promega Ref: G7571) at 75 μL reagent/well. All the conditions were tested in triplicates. Luminescence was quantified on a multipurpose plate reader. IC50s were calculated using standard four-parametric curve fitting.

LOUCY (T-ALL) = assay: CellTiter-Glo viability 72 h, single agent or 1/1 combination, LOUCY (Example 9); format: cell-based; conditions: single agent or 1/1 combination as labelled
Protocol: as §1

Cc1c(Nc2nc3ccccc3s2)nnc2c1CCCN2c1ccc(-c2cnn(CC34CC5(C)CC(C)(C3)CC(OCCN(CC[C@H](O)CO)C(=O)OCc3ccc(NC(=O)[C@H](CCCNC(N)=O)NC(=O)[C@@H](NC(=O)CCOCCN6C(=O)CC(C)C6=O)C(C)C)cc3CN(C)C(=O)CCOCCOCCOCCOCCOCCOCCOCCOCCOCCOCCOCCOCCOCCOCCOCCOCCOCCOCCOCCOCCOCCOCCOCCOCCOCCC(=O)O)(C5)C4)c2C)c(C(=O)O)n1 (mixture of isomers) [EGFR1-L11C-P19]
Regression (%) ([1]; day 21): −35% | ΔTumor volume (mm^3) D21 ([1]; day 21): −52 ± 21 mm^3 | Statistics 21 vs EGFR-L109A-P1 [1]: P < 0.05 | Statistics D21 vs Vehicle gp [1]: P < 0.05 | Statistics D46 vs EGFR-L109A-P1 [1]: P < 0.05

CNCCOCCOCCNC(=O)OC[C@@H]1[C@@H]2CCc3nnn(CCOCCOCCOCC(=O)N[C@H](C(=O)N[C@@H](CCCNC(N)=O)C(=O)Nc4ccc(COC(=O)N(C)CC#Cc5ccc(OCCCc6sc(N(C)c7cc(C)c(Nc8nc9ccccc9s8)nn7)nc6C(=O)O)c(F)c5)cc4)C(C)C)c3CC[C@@H]21 [Ab T - L23C-P7]
Stab w1 +37° C. % Agg (by SEC) [2]: 4% | IC50 (HCC1569 cells; read-out: HCC1569 CTG 120 h IC50 nM + Paclitaxel 10 nM Mean N1 and N2, in the presence of 10 nM Paclitaxel, mean): 0.213 nM | IC50 (HCC1569 cells; read-out: HCC1569 CTG 120 h IC50 nM + Paclitaxel 10 nM N1, in the presence of 10 nM Paclitaxel, N1): 0.287 nM | IC50 (HCC1569 cells; read-out: HCC1569 CTG 120 h IC50 nM + Paclitaxel 10 nM N2, in the presence of 10 nM Paclitaxel, N2): 0.139 nM | IC50 (HCC1569 cells; read-out: HCC1569 CTG 120 h IC50 nM Mean N1 and N2, single agent, mean): > 300 nM | IC50 (HCC1569 cells; read-out: HCC1569 CTG 120 h IC50 nM N1, single agent, N1): > 300 nM | IC50 (HCC1569 cells; read-out: HCC1569 CTG 120 h IC50 nM N2, single agent, N2): > 300 nM

Cc1c(Nc2nc3ccccc3s2)nnc2c1CCCN2c1ccc(-c2cnn(CC34CC5(C)CC(C)(C3)CC(OCC[N+]3(Cc6ccc(NC(=O)[C@H](CCCNC(N)=O)NC(=O)[C@@H](NC(=O)CCOCCN7C(=O)CC(C)C7=O)C(C)C)cc6CN(C)C(=O)CCOCCOCCOCCOCCOCCOCCOCCOCCOCCOCCOCCOCCOCCOCCOCCOCCOCCOCCOCCOCCOCCOCCOCCOCCOCCC(=O)O)CCCC3)(C5)C4)c2C)c(C(=O)O)n1 (stereo partly drawn) [EGFR1-L11A-P21]
Regression (%) ([1]; day 21): −8% | ΔTumor volume (mm^3) D21 ([1]; day 21): −16 ± 20 mm^3 | Statistics D21 vs Vehicle gp [1]: P < 0.05 | Statistics D46 vs EGFR-L109A-P1 [1]: P < 0.05

Cc1c(Nc2nc3ccccc3s2)nnc2c1CCCN2c1ccc(-c2cnn(CC34CC5(C)CC(C)(C3)CC(OCC[N+](C)(C)Cc3ccc(NC(=O)[C@H](CCCNC(N)=O)NC(=O)[C@@H](NC(=O)CCOCCN6C(=O)CC(C)C6=O)C(C)C)cc3CN(C)C(=O)CCOCCOCCOCCOCCOCCOCCOCCOCCOCCOCCOCCOCCOCCOCCOCCOCCOCCOCCOCCOCCOCCOCCOCCOCCOCCC(=O)O)(C5)C4)c2C)c(C(=O)O)n1 (stereo partly drawn) [EGFR1-L11A-P27]
T/C (%) D21 ([1]; day 21): 3% | ΔTumor volume (mm^3) D21 ([1]; day 21): 14 ± 18 mm^3 | Statistics D21 vs Vehicle gp [1]: P < 0.05

Cc1c(Nc2nc3ccccc3s2)nnc2c1CCCN2c1ccc(-c2cnn(CC34CC5(C)CC(C)(C3)CC(OCCN(CCCO)C(=O)OCc3ccc(NC(=O)[C@H](CCCNC(N)=O)NC(=O)[C@@H](NC(=O)CCOCCN6C(=O)CC(C)C6=O)C(C)C)cc3CN(C)C(=O)CCOCCOCCOCCOCCOCCOCCOCCOCCOCCOCCOCCOCCOCCOCCOCCOCCOCCOCCOCCOCCOCCOCCOCCOCCOCCC(=O)O)(C5)C4)c2C)c(C(=O)O)n1 (stereo partly drawn) [EGFR1-L11C-P25]
Regression (%) ([1]; day 21): −50% | ΔTumor volume (mm^3) D21 ([1]; day 21): −76 ± 17 mm^3 | Statistics 21 vs EGFR-L109A-P1 [1]: P < 0.05 | Statistics D21 vs Vehicle gp [1]: P < 0.05 | Statistics D46 vs EGFR-L109A-P1 [1]: P < 0.05

CNCC#Cc1ccc(OCCCc2sc(N(C)c3cc(C)c(Nc4nc5ccccc5s4)nn3)nc2C(=O)O)c(F)c1 [P7, 2-[[6-(1,3-benzothiazol-2-ylamino)-5-methyl-pyridazin-3-yl]-methyl-amino]-5-[3-[2-fluoro-4-[3-(methylamino)prop-1-ynyl]phenoxy]propyl]thiazole-4-carboxylic acid]
IC50 (H1650 cells; experiment n1, read-out: H1650 3D CTG IC50 n1): 7.5 nM | IC50 (H1650 cells; experiment n2, read-out: H1650 3D CTG IC50 n2): 4.7 nM | IC50 (H1650 cells; mean of n1 and n2, read-out: H1650 3D CTG IC50 Mean of n1 and n2): 6.1 nM | IC50 (HCC1569 cells; Homo sapiens, HCC1569, read-out: HCC1569 CTG 120 h IC50 nM + Paclitaxel 10 nM Mean N1 and N2, in the presence of 10 nM Paclitaxel, mean): 0.436 nM | IC50 (HCC1569 cells; Homo sapiens, HCC1569, read-out: HCC1569 CTG 120 h IC50 nM + Paclitaxel 10 nM N1, in the presence of 10 nM Paclitaxel, N1): 0.443 nM | IC50 (HCC1569 cells; Homo sapiens, HCC1569, read-out: HCC1569 CTG 120 h IC50 nM + Paclitaxel 10 nM N2, in the presence of 10 nM Paclitaxel, N2): 0.429 nM | IC50 (HCC1569 cells; Homo sapiens, HCC1569, read-out: HCC1569 CTG 120 h IC50 nM Mean N1 and N2, single agent, mean): 33 nM | IC50 (HCC1569 cells; Homo sapiens, HCC1569, read-out: HCC1569 CTG 120 h IC50 nM N1, single agent, N1): 40.3 nM | IC50 (HCC1569 cells; Homo sapiens, HCC1569, read-out: HCC1569 CTG 120 h IC50 nM N2, single agent, N2): 25.6 nM

CC[C@]1(O)C[C@H]2CN(CCc3c([nH]c4ccccc34)[C@@](C(=O)OC)(c3cc4c(cc3OC)N(C=O)[C@H]3[C@@](O)(C(=O)OC)[C@H](OC(C)=O)[C@]5(CC)C=CCN6CC[C@]43[C@@H]65)C2)C1 [Vincristine, vincristine]
IC50 (HPB-ALL (T-ALL); mean, read-out: HPB-ALL (T-ALL) IC50 mean): 0.705 nM | IC50 (HPB-ALL (T-ALL); n1, read-out: HPB-ALL (T-ALL) IC50 n1): 0.68 nM | IC50 (HPB-ALL (T-ALL); n2, read-out: HPB-ALL (T-ALL) IC50 n2): 0.73 nM | IC50 (ALL-SILL (T-ALL); mean, read-out: ALL-SILL (T-ALL) IC50 mean): 0.089 nM | IC50 (ALL-SILL (T-ALL); n1, read-out: ALL-SILL (T-ALL) IC50 n1): 0.094 nM | IC50 (ALL-SILL (T-ALL); n2, read-out: ALL-SILL (T-ALL) IC50 n2): 0.083 nM | IC50 (LOUCY (T-ALL); mean, read-out: LOUCY (T-ALL) IC50 mean): 0.73 nM | IC50 (LOUCY (T-ALL); n1, read-out: LOUCY (T-ALL) IC50 n1): 0.96 nM | IC50 (LOUCY (T-ALL); n2, read-out: LOUCY (T-ALL) IC50 n2): 0.5 nM
